# From patent publication US4223019A, “Synthetic peptides having pituitary growth hormone releasing activity” (Beckman Instruments, Inc., priority 1979, dated 1980)
# Square brackets hold non-standard residues; d marks the D form. Peptide text beside a SMILES is read from it.
# Tested on: pituitaries removed from 20 day old female rats
# Test: In Vitro Growth Hormone Release Study
# Format: cell-based, rat
# Conditions: mean ± SEM, control -180 ± 108
# Method: Female rats of the CD-1 strain were housed in a constant temperature room at 24° C. with 14 hours light and 10 hours darkness. The rats were fed Purina brand rat chow ab libitum.
# All studies were started between 0800 and 1000 hours.
# Pituitaries were removed from 20 day old female rats. Two pituitaries were incubated at 36° C. in 1 ml of lactated Ringer's solution in 10 ml polytetrafluoroethylene beakers in a Dubnoff Shaker (90 cycles/min.). The pituitaries were incubated a total of 4 hours (P1, P2, I3, and I4). After two successive one hour preincubation periods (P1, P2), the peptide was added to the incubation medium hourly for 2 hours (I3, I4).
# This in vitro study was performed in triplicate and a standard radioimmunoassay of growth hormone present in the incubation medium was performed in duplicate. The hormonal activity was calculated as the difference (Δ) of growth hormone (GH) levels between I3, I4 and P2, i.e., (I3 -P2) and (I4 -P2). P values were calculated by Students' t test using six growth hormone values for each value recorded.
# The growth hormone radioimmunoassay reagents were distributed by the National Institute of Arthritis and […] (NIAMDD) program. The growth hormone values were calculated in terms of nanograms (ng) of a rat standard with a growth hormone potency of 0.61 units/mg.
compound,measurement,setting,value
NCCCC[C@@H](N)C(=O)N[C@@H](Cc1ccc(O)cc1)C(=O)N[C@H](Cc1c[nH]c2ccccc12)C(=O)N[C@H](Cc1c[nH]c2ccccc12)C(=O)N[C@@H](Cc1ccccc1)C(N)=O [H2 N--D--Lys--Tyr--D--Trp--D--Trp--Phe--CONH2] (H-[dK]Y[dW][dW]F-NH2),"IN VITRO GROWTH HORMONE RELEASE (ΔGH, I3-P2 and I4-P2)","peptide 1μg, P Value <0.01",1046 ± 266 ngΔGH/ml incubation medium
same,"IN VITRO GROWTH HORMONE RELEASE (ΔGH, I3-P2 and I4-P2)","peptide 20μg, P Value <0.001",1487 ± 197 ngΔGH/ml incubation medium
same,"IN VITRO GROWTH HORMONE RELEASE (ΔGH, I3-P2 and I4-P2)","peptide 100μg, P Value <0.001",1654 ± 329 ngΔGH/ml incubation medium
